Laboratory results reported in patent US11472811B2, “Pyrazolotriazolopyrimidine derivatives as A2A receptor antagonist” (BEIGENE, LTD., priority 2018, dated 2022).

What follows are compounds tested against human A2A receptor (A2AR) (Homo sapiens (Human), UniProt P29274) (assay: Luciferase reporter assay (HEK293-A2AR-luc2p/CRE/Hygro cells)). Conditions: 3 nM CGS21680, 5 h incubation.
Type: cell-based
Procedure: HEK293 cells were maintained in Dulbecco's modified Eagle's medium (DMEM, Gibco) supplemented with 10% fetal bovine serum (FBS, Thermo Scientific), 100 units/mL penicillin (Gibco), and 0.1 mg/mL streptomycin (Gibco) in a humidified 37° C. environment with 5% CO2. Plasmid encoding wild-type human A2A receptor (A2AR) (in pcDNA3.1) was synthesized by Genscript (Nanjing, China). Transfection of the plasmids was performed in 6-well plates with 4×10^5 cells using Lipofectamin 2000 (ThermoFisher Scientific) according to the instruction of the manufacturer. Cell clones that stably express A2AR were established and maintained in the same complete medium as the HEK293 cells in addition of G-418 (Gibico). Expression level of A2AR in each single cell clone was determined using immunoblotting and FACS method. HEK293-A2AR stable cells were then transfected with pGL4.29[luc2P/CRE/Hygro] (Promega) luciferase reporter plasmid for establishing the HEK293-A2AR-luc2p/CRE/Hygro stable cell line.
HEK293-A2AR-luc2p/CRE/Hygro cells were seeded at a density of 5,000 cells/well in DMEM with 1% FBS and 1 U/mL adenosine deaminase (ADA) (Sigma). After 18 h, the cells were treated with 3 nM CGS21680 plus a series dilution of A2AR antagonist, the compounds disclosed herein at the concentration of 0.1˜10000 nM, prepared in DMEM with 1% FBS. After 5 h incubation, the luciferase activity in cells were measured using the Bright-Glo Luciferase Assay System (Promega) according to manufacturer's instructions. The luminescence signal was measured using a PHERAstar FS plate reader (BMG Labtech). […] Maximal luminescence intensity was determined in the presence of 3 nM CGS21680 and was set as 100%. The IC50 value was calculated from a dose dependent inhibition curve across the range of compound concentrations.

Chain of human A2A receptor (A2AR) (P29274 whole entry): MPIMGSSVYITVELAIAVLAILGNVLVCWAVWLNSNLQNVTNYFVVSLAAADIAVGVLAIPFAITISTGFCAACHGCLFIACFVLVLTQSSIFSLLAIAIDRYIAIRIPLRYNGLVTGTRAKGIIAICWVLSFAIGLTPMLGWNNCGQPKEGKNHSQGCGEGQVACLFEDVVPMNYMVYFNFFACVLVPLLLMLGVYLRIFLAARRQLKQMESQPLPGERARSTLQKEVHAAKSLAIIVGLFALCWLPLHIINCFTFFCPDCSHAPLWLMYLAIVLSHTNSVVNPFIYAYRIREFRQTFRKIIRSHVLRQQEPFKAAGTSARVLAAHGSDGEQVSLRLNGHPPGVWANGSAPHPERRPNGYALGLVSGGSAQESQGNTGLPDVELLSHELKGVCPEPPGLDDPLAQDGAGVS

`NC(=O)C(c1ccccc1)n1ncc2c1nc(N)n1nc(-c3ccco3)nc21` (centres unmarked) [Example 19, 2-(5-amino-2-(furan-2-yl)-7H-pyrazolo[4,3-e][1,2,4]triazolo[1,5-c]pyrimidin-7-yl)-2-phenylacetamide] and `Nc1nc2c(cnn2C(C(=O)NCC2(O)COC2)c2ccccc2)c2nc(-c3ccco3)nn12` (centres unmarked) [Example 82, 2-(5-amino-2-(furan-2-yl)-7H-pyrazolo[4,3-e][1,2,4]triazolo[1,5-c]pyrimidin-7-yl)-N-((3-hydroxyoxetan-3-yl)methyl)-2-phenylacetamide] are the same in IC50: 4.5 nM for the first, 4.5 nM for the second.

`COc1ccccc1C(C)(C(=O)N[C@H]1CC[C@](C)(O)CC1)n1ncc2c1nc(N)n1nc(-c3ccco3)nc21` (stereo partly drawn) [Example 140, 2-(5-amino-2-(furan-2-yl)-7H-pyrazolo[4,3-e][1,2,4]triazolo[1,5-c]pyrimidin-7-yl)-N-((cis)-4-hydroxy-4-methylcyclohexyl)-2-(2-methoxyphenyl)propanamide] and `COc1ccccc1C(C)(C(=O)NCC1(O)COC1)n1ncc2c1nc(N)n1nc(-c3ccco3)nc21` (centres unmarked) [Example 70, 2-(5-amino-2-(furan-2-yl)-7H-pyrazolo[4,3-e][1,2,4]triazolo[1,5-c]pyrimidin-7-yl)-N-((3-hydroxyoxetan-3-yl)methyl)-2-(2-methoxyphenyl)propanamide] are within 1.5-fold of each other in IC50: 1.2 nM for the first, 1.7 nM for the second.

First: CC(=O)O[C@H]1CC[C@@H](NC(=O)[C@@](C)(c2ccccc2)n2ncc3c2nc(N)n2nc(-c4ccco4)nc32)CC1 [Example 151B, (cis)-4-((R)-2-(5-amino-2-(furan-2-yl)-7H-pyrazolo[4,3-e][1,2,4]triazolo[1,5-c]pyrimidin-7-yl)-2-phenylpropanamido)cyclohexyl acetate]
Second: CC(C(=O)N[C@H]1CC[C@@H](O)C1)(c1ccccc1)n1ncc2c1nc(N)n1nc(-c3ccco3)nc21 (stereo partly drawn) [Example 136, 2-(5-amino-2-(furan-2-yl)-7H-pyrazolo[4,3-e][1,2,4]triazolo[1,5-c]pyrimidin-7-yl)-N-((1S,3R)-3-hydroxycyclopentyl)-2-phenylpropanamide]
The IC50 of the first is 4-fold lower: 2 nM for the first, 7.9 nM for the second. The first is the more potent here.

Going from `CC(C(=O)NCCO)(c1ccccc1)n1ncc2c1nc(N)n1nc(-c3ccco3)nc21` (centres unmarked) [Example 55, 2-(5-amino-2-(furan-2-yl)-7H-pyrazolo[4,3-e][1,2,4]triazolo[1,5-c]pyrimidin-7-yl)-N-(2-hydroxyethyl)-2-phenylpropanamide] to `C[C@](C(=O)O)(c1ccccc1)n1ncc2c1nc(N)n1nc(-c3ccco3)nc21` [Intermediate-Ib, (R)-2-(5-amino-2-(furan-2-yl)-7H-pyrazolo[4,3-e][1,2,4]triazolo[1,5-c]pyrimidin-7-yl)-2-phenylpropanoic acid], the IC50 rises from 13.8 nM to 567 nM (41-fold). The first is the more potent here.

First: CC1(O)CC(NC(=O)[C@@](C)(c2ccccc2)n2ncc3c2nc(N)n2nc(-c4ccco4)nc32)C1 (stereo in doubt) [Example 105B, (R)-2-(5-amino-2-(furan-2-yl)-7H-pyrazolo[4,3-e][1,2,4]triazolo[1,5-c]pyrimidin-7-yl)-(cis)-N-(3-hydroxy-3-methylcyclobutyl)-2-phenylpropanamide]
Second: CC(C(=O)N[C@H]1C[C@@](C)(O)C1)(c1ccccc1)n1ncc2c1nc(N)n1nc(-c3ccco3)nc21 (stereo partly drawn) [Example 105, 2-(5-amino-2-(furan-2-yl)-7H-pyrazolo[4,3-e][1,2,4]triazolo[1,5-c]pyrimidin-7-yl)-N-((1S,3S)-3-hydroxy-3-methylcyclobutyl)-2-phenylpropanamide]
The IC50 of the first is 2.1-fold lower: 5 nM for the first, 10.7 nM for the second.

`CC(C(=O)NCCN1CCNCC1)(c1ccccc1)n1ncc2c1nc(N)n1nc(-c3ccco3)nc21` (centres unmarked) [Example 45, 2-(5-amino-2-(furan-2-yl)-7H-pyrazolo[4,3-e][1,2,4]triazolo[1,5-c]pyrimidin-7-yl)-2-phenyl-N-(2-(piperazin-1-yl)ethyl)propanamide] and `C[C@](C(=O)NCCN1CCC(O)CC1)(c1ccccc1)n1ncc2c1nc(N)n1nc(-c3ccco3)nc21` [Example 148B, (R)-2-(5-amino-2-(furan-2-yl)-7H-pyrazolo[4,3-e][1,2,4]triazolo[1,5-c]pyrimidin-7-yl)-N-(2-(4-hydroxypiperidin-1-yl)ethyl)-2-phenylpropanamide] are within 1.5-fold of each other in IC50: 22.4 nM for the first, 19.3 nM for the second.

First: C[C@H](NC(=O)C(c1ccccc1)n1ncc2c1nc(N)n1nc(-c3ccco3)nc21)c1ccccc1 (stereo partly drawn) [Example 9, 2-(5-amino-2-(furan-2-yl)-7H-pyrazolo[4,3-e][1,2,4]triazolo[1,5-c]pyrimidin-7-yl)-2-phenyl-N—((S)-1-phenylethy)acetamide]
Second: C[C@@H](NC(=O)C(c1ccccc1)n1ncc2c1nc(N)n1nc(-c3ccco3)nc21)c1ccccc1 (stereo partly drawn) [Example 10, 2-(5-amino-2-(furan-2-yl)-7H-pyrazolo[4,3-e][1,2,4]triazolo[1,5-c]pyrimidin-7-yl)-2-phenyl-N—((R)-1-phenylethyl)acetamide]
The IC50 of the first is 1.9-fold higher: 31.9 nM for the first, 16.5 nM for the second. The second is the more potent here.

Compared with `COc1ccc(CNC(=O)C(c2ccccc2)n2ncc3c2nc(N)n2nc(-c4ccco4)nc32)cc1` (centres unmarked) [Example 28, 2-(5-amino-2-(furan-2-yl)-7H-pyrazolo[4,3-e][1,2,4]triazolo[1,5-c]pyrimidin-7-yl)-N-(4-methoxybenzyl)-2-phenylacetamide], `Nc1nc2c(cnn2C(C(=O)N[C@@H]2CCOc3ccccc32)c2ccccc2)c2nc(-c3ccco3)nn12` (stereo partly drawn) [Example 15, 2-(5-amino-2-(furan-2-yl)-7H-pyrazolo[4,3-e][1,2,4]triazolo[1,5-c]pyrimidin-7-yl)-N—((R)-chroman-4-yl)-2-phenylacetamide] is 4.9-fold higher in IC50: 1.6 nM for the first, 7.9 nM for the second.

`CC(C(=O)N[C@@H]1CC[C@@H](O)C1)(c1ccccc1)n1ncc2c1nc(N)n1nc(-c3ccco3)nc21` (stereo partly drawn) [Example 94, 2-(5-amino-2-(furan-2-yl)-7H-pyrazolo[4,3-e][1,2,4]triazolo[1,5-c]pyrimidin-7-yl)-N-((1R,3R)-3-hydroxycyclopentyl)-2-phenylpropanamide] and `C[C@](C(=O)N[C@H]1C[C@H](O)C1)(c1ccccc1)n1ncc2c1nc(N)n1nc(-c3ccco3)nc21` [Example 102B, (R)-2-(5-amino-2-(furan-2-yl)-7H-pyrazolo[4,3-e][1,2,4]triazolo[1,5-c]pyrimidin-7-yl)-(trans)-N-(3-hydroxycyclobutyl)-2-phenylpropanamide] are within 1.5-fold of each other in IC50: 11.2 nM for the first, 10.7 nM for the second.

Going from `COc1cccc(CNC(=O)[C@@](C)(c2ccccc2)n2ncc3c2nc(N)n2nc(-c4ccco4)nc32)n1` [Example 112B, (R)-2-(5-amino-2-(furan-2-yl)-7H-pyrazolo[4,3-e][1,2,4]triazolo[1,5-c]pyrimidin-7-yl)-N-((6-methoxypyridin-2-yl)methyl)-2-phenylpropanamide] to `COc1ccnc(CNC(=O)C(C)(c2ccccc2)n2ncc3c2nc(N)n2nc(-c4ccco4)nc32)c1` (centres unmarked) [Example 114, 2-(5-amino-2-(furan-2-yl)-7H-pyrazolo[4,3-e][1,2,4]triazolo[1,5-c]pyrimidin-7-yl)-N-((4-methoxypyridin-2-yl)methyl)-2-phenylpropanamide], the IC50 rises from 1.2 nM to 3.3 nM (2.8-fold). The first is the more potent here.

`CC(C(=O)NC1CCC(=O)CC1)(c1ccccc1)n1ncc2c1nc(N)n1nc(-c3ccco3)nc21` (centres unmarked) [Example 128, 2-(5-amino-2-(furan-2-yl)-7H-pyrazolo[4,3-e][1,2,4]triazolo[1,5-c]pyrimidin-7-yl)-N-(4-oxocyclohexyl)-2-phenylpropanamide] and `CC(C(=O)NCC1CCCOC1)(c1ccccc1)n1ncc2c1nc(N)n1nc(-c3ccco3)nc21` (centres unmarked) [Example 61, 2-(5-amino-2-(furan-2-yl)-7H-pyrazolo[4,3-e][1,2,4]triazolo[1,5-c]pyrimidin-7-yl)-2-phenyl-N-((tetrahydro-2H-pyran-3-yl)methyl)propanamide] are within 1.5-fold of each other in IC50: 12.8 nM for the first, 12.4 nM for the second.

`CC(C(=O)NCc1cc(F)ccn1)(c1ccccc1)n1ncc2c1nc(N)n1nc(-c3ccco3)nc21` (centres unmarked) [Example 118, 2-(5-amino-2-(furan-2-yl)-7H-pyrazolo[4,3-e][1,2,4]triazolo[1,5-c]pyrimidin-7-yl)-N-((4-fluoropyridin-2-yl)methyl)-2-phenylpropanamide] and `CC(C(=O)NCC1(O)COC1)(c1ccccc1)n1ncc2c1nc(N)n1nc(-c3ccco3)nc21` (centres unmarked) [Example 31, 2-(5-amino-2-(furan-2-yl)-7H-pyrazolo[4,3-e][1,2,4]triazolo[1,5-c]pyrimidin-7-yl)-N-((3-hydroxyoxetan-3-yl)methyl)-2-phenylpropanamide] are within 1.5-fold of each other in IC50: 7.2 nM for the first, 5.8 nM for the second.

Going from `CC(C(=O)NCC1(O)COC1)(c1ccccc1F)n1ncc2c1nc(N)n1nc(-c3ccco3)nc21` (centres unmarked) [Example 87, 2-(5-amino-2-(furan-2-yl)-7H-pyrazolo[4,3-e][1,2,4]triazolo[1,5-c]pyrimidin-7-yl)-2-(2-fluorophenyl)-N-((3-hydroxyoxetan-3-yl)methyl)propanamide] to `Nc1nc2c(cnn2C(C(=O)N[C@H]2CCOc3ccccc32)c2ccccc2)c2nc(-c3ccco3)nn12` (stereo partly drawn) [Example 16, 2-(5-amino-2-(furan-2-yl)-7H-pyrazolo[4,3-e][1,2,4]triazolo[1,5-c]pyrimidin-7-yl)-N—((S)-chroman-4-yl)-2-phenylacetamide], the IC50 rises from 4.9 nM to 44.6 nM (9.1-fold).
